Experiments:
[1] = system: Red blood cells; test: Anti-sludge in vitro, "curative" procedure (protamine sulfate agglomeration of red blood cells); type: cell-based, rats; conditions: 25 μg
Experimental: (§1) Red blood cells of rats are washed three times and diluted to 1/250 concentration in physiological saline. In each of 5 tubes are placed 0.6 ml of this suspension and 0.2 ml physiological saline. Into each tube is then added, respectively, an amount of 0, 25, 50, 100 and 200 μg of the test derivative contained in 0.2 ml of solution. After incubation for one hour at 37° C., 0.2 ml of a solution containing 125 μg/ml protamine sulfate is added thereto, and the resulting material is further incubated for 0.5 hour at 37° C. The red blood cells of each tube are then examined with a Mallasez cell, and the percent free red blood cells (RBC) and the percent agglomerates formed by 2, 3, 4, 5 . . . RBC are noted.
The test was repeated according to a "curative" procedure. The red blood cells were first contacted with the protamine sulfate and, after incubation for 0.5 hour, 0.2 ml containing 25 μg of the test derivative were added thereto, after which the material was further incubated for one hour at 37° C.

[2] = system: A.D.P.-induced blood-platelet aggregation; test: A.D.P.-induced blood-platelet aggregation after oral treatment of rats; type: in vivo, Wistar rats; conditions: Rattus norvegicus, 100 mg/kg oral, 3 hrs after treatment, 10 μM A.D.P. solution, read-out: Percent inhibition of blood-platelet aggregation, A.D.P.
Experimental: (§2) Blood is taken from the jugular vein of Wistar rats. From this citrated blood, and after centrifugation, a plasma containing 600,000±20,000 blood-platelets per mm 3 is reconstituted, which plasma is used in all aggregation determinations.
(§3) 0.4 ml plasma is placed in a siliconized tube provided with a magnet bar which is also siliconized. The tube is introduced into an aggregometer connected to an apparatus which records the optical density variations. When light transmission reaches a stable value, 0.5 ml of a solution containing 10 μM A.D.P. (adenosine diphosphate) is introduced into the tube.
Blood-platelet aggregation then induces an increase of light transmission, followed by a decrease subsequent to the disaggregation stage.
The maximal optical density variation thus determined characterizes the extent of the aggregation.
(§4) Different groups of 20 rats each are used. Each group is orally administered a test derivative, at a dosage of 100 mg/kg. The results obtained during both tests are reported in following Table I which indicates the percent inhibition of blood-platelet aggregation obtained with respect to the reference group, 3 hrs after treatment.

[3] = system: mouse; test: Antalgic action, mechanical stimulation method according to Haffner; type: in vivo; conditions: 100 mg/kg oral
Experimental: (a) Mechanical stimulation method according to Haffner (Deutsch. Wish., 1959, 55, 731-733). This method comprises placing a pressure forceps at the base of the tail of a mouse and recording the number of bites self-inflicted by the animal in its endeavour to remove the forceps. The decrease of the number of bites prior and subsequent to oral administration of the test compound at a dosage of 100 mg/kg provides a measure of the antalgic activity of the derivatives of this invention.

[4] = system: ovalbumin-induced systemic edema; test: Ovalbumin-induced systemic edema method; type: in vivo; conditions: rats, 100 mg/kg oral one hour before and with ovalbumin
Experimental: Rats are administered a simultaneous intraperitoneal injection of 1 ml ovalbumin and 0.5 ml of a 1% aqueous Evans Blue solution. The animals of the treated group are additionally orally administered 100 mg/kg of the test derivative, one hour prior to ovalbumin administration and then simultaneously with said ovalbumin administration. The intensity of the phenomenon thus induced is rated according to a scale from 1 to 5, according to the progress of the inflammatory syndrome. The determinations are effected after 2 hours and after 3 hours. Thus are determined the mean intensity of the edema and the percent decrease of the edema reaction.

[5] = system: collagen-induced blood-platelet aggregation; test: Collagen-induced blood-platelet aggregation after oral treatment of rats; type: in vivo, Wistar rats; conditions: Rattus norvegicus, 100 mg/kg oral, 3 hrs after treatment, collagen (bovine tendon extract), read-out: Percent inhibition of blood-platelet aggregation, Collagen
Experimental: as §2, §3
The A.D.P. solution is substituted with a collagen solution (bovine tendon extract).
as §4

[6] = system: carrageenin-induced edema; test: Localized carrageenin-induced edema method; type: in vivo; conditions: rats, 100 mg/kg oral one hour before, with, and 1 and 2.5 hours after carrageenin
Experimental: 0.1 ml of a 1% carrageenin solution is injected at time O in the metatarsal flexor muscles of the right hind limb of rats.
The animals of the treated group are additionally orally administered 100 mg/kg of the test derivative, respectively one hour prior to, and then simultaneously with the phlogogenic agent, and then one hour and 2.5 hours thereafter. The determinations effected with a ROCH micrometer at times 0, 1 hr, 2 hrs, 3 hrs and 5 hrs after carrageenin administration make it possible to determine the percent anti-inflammatory activity, as a function of time.

[7] = system: Red blood cells; test: Anti-sludge in vitro, "preventive" treatment (protamine sulfate agglomeration of red blood cells); type: cell-based, rats; conditions: for percent agglomerates formed by 5 RBC: controls 6 or 8; for percent agglomerates formed by 4 RBC: controls 9 or 8; for percent agglomerates formed by 3 RBC: controls 13 or 14; for percent agglomerates formed by 2 RBC: controls 17 or 16; for percent free red blood cells (size 1): controls 32 (n°3, 4, 6) or 30 (n°11, 12, 17)
Experimental: as §1

[8] = system: mice; test: Antalgic action, acetic acid method according to Koster, Anderson & de Beer; type: in vivo; conditions: 100 mg/kg oral, 30 minutes prior to i.p. acetic acid
Excerpt: (b) Acetic acid method, according to Koster, Anderson & de Beer (Fed. Proced., 18, 1959, 412, 1, 626)
Intraperitoneal injection of a dilute acetic acid solution induces, in mice, characteristic writhing movements which are repeated due to the effect of pain.

CC(=O)N1CC(c2ccccc2)c2ccsc2C1=O (stereo not drawn) [Derivative n°17, 4-Phenyl-6-acetyl-7-oxo-4,5,6,7-tetrahydro-thieno[2,3-c]-pyridine]
percent aggregates, size of agglomerates 5 ([1]; reference tests 8 or 9): 1% | percent aggregates, size of agglomerates 4 ([1]; reference tests 11): 1% | percent aggregates, size of agglomerates 3 ([1]; reference tests 15 or 16): 2% | percent aggregates, size of agglomerates 2 ([1]; reference tests 19): 16% | percent aggregates, size of agglomerates 1 ([1]; reference tests 33 (n°3, 4, 6) or 30 (n°11, 12, 17)): 80% | inhibition at 100 mg/kg [2]: 61.3% | mean percent antalgia after 30 min. ([3]; after 30 min.): 70% | mean percent antalgia after 1 hr ([3]; after 1 hr): 65% | mean percent antalgia after 2 hrs ([3]; after 2 hrs): 60% | mean percent antalgia after 3 hrs ([3]; after 3 hrs): 55% | Percent decrease of the edema reaction After 2 hours ([4]; after 2 hours): 46% | Percent decrease of the edema reaction After 3 hours ([4]; after 3 hours): 58% | inhibition at 100 mg/kg [5]: 91.7% | Percent anti-inflammatory activity after 1 hour ([6]; after 1 hour): 37% | Percent anti-inflammatory activity after 2 hours ([6]; after 2 hours): 49% | Percent anti-inflammatory activity After 3 hours ([6]; after 3 hours): 54% | percent agglomerates formed by 5 RBC ([7]; 25 μg per tube): 3% | percent agglomerates formed by 4 RBC ([7]; 25 μg per tube): 3% | percent agglomerates formed by 3 RBC ([7]; 25 μg per tube): 13% | percent agglomerates formed by 2 RBC ([7]; 25 μg per tube): 23% | percent free red blood cells (size 1) ([7]; 25 μg per tube): 58% | percent agglomerates formed by 5 RBC ([7]; 50 μg per tube): 1% | percent agglomerates formed by 4 RBC ([7]; 50 μg per tube): 2% | percent agglomerates formed by 3 RBC ([7]; 50 μg per tube): 4% | percent agglomerates formed by 2 RBC ([7]; 50 μg per tube): 28% | percent free red blood cells (size 1) ([7]; 50 μg per tube): 65% | percent agglomerates formed by 5 RBC ([7]; 100 μg per tube): 1% | percent agglomerates formed by 4 RBC ([7]; 100 μg per tube): 1% | percent agglomerates formed by 3 RBC ([7]; 100 μg per tube): 4% | percent agglomerates formed by 2 RBC ([7]; 100 μg per tube): 14% | percent free red blood cells (size 1) ([7]; 100 μg per tube): 80% | percent agglomerates formed by 4 RBC ([7]; 200 μg per tube): 1% | percent agglomerates formed by 3 RBC ([7]; 200 μg per tube): 2% | percent agglomerates formed by 2 RBC ([7]; 200 μg per tube): 9% | percent free red blood cells (size 1) ([7]; 200 μg per tube): 88% | percent antalgia [8]: 68%

From patent publication US4193997A, “Thieno[2,3-c] and [3,2-c]pyridines, process for their preparation and therapeutic applications thereof” (Parcor, priority 1977, dated 1980)
